Assay results from ChEMBL document CHEMBL3046063, “Synthesis and antimicrobial activity of 5-chloroindoline-2,3-dione derivatives” (2012).
Values after ≈ are worked out from the molar mass of the structure shown.

Tests used:
Assay type in all cases: functional
Aspergillus niger = experiment: Antimicrobial activity against Aspergillus niger ATCC 9142 after 24 hr by broth dilution method; details: ATCC 9142, 24 h
Fusarium solani = experiment: Antimicrobial activity against Fusarium solani ATCC 38136 after 24 hr by broth dilution method; details: ATCC 38136, 24 h
Rhizoctonia solani = experiment: Antimicrobial activity against Rhizoctonia solani ATCC 76131 after 24 hr by broth dilution method; details: ATCC 76131, 24 h
Micrococcus luteus = experiment: Antimicrobial activity against Micrococcus luteus ATCC 4698 after 24 hr by broth dilution method; details: ATCC 4698, 24 h
Proteus vulgaris = experiment: Antimicrobial activity against Proteus vulgaris ATCC 13315 after 24 hr by broth dilution method; details: ATCC 13315, 24 h
Aspergillus awamori = experiment: Antimicrobial activity against Aspergillus awamori ATCC 22342 after 24 hr by broth dilution method; details: ATCC 22342, 24 h
Aspergillus fumigatus = experiment: Antimicrobial activity against Aspergillus fumigatus after 24 hr by broth dilution method
Trichophyton longifusum = experiment: Antimicrobial activity against Trichophyton longifusum ATCC 22397 after 24 hr by broth dilution method; details: ATCC 22397, 24 h
Bacillus cereus = experiment: Antimicrobial activity against Bacillus cereus ATCC 11778 after 24 hr by broth dilution method; details: ATCC 11778, 24 h
Escherichia coli = experiment: Antimicrobial activity against Escherichia coli ATCC 25922 after 24 hr by broth dilution method; details: ATCC 25922, 24 h
[1] = test system: Staphylococcus epidermidis; experiment: Antimicrobial activity against Staphylococcus epidermidis ATCC 12228 after 24 hr by broth dilution method; details: ATCC 12228, 24 h
Staphylococcus hominis = experiment: Antimicrobial activity against Staphylococcus hominis ATCC 27844 after 24 hr by broth dilution method; details: ATCC 27844, 24 h
Alternaria alternata = experiment: Antimicrobial activity against Alternaria alternata ATCC 66868 after 24 hr by broth dilution method; details: ATCC 66868, 24 h
Bacillus pumilus = experiment: Antimicrobial activity against Bacillus pumilus ATCC 14884 after 24 hr by broth dilution method; details: ATCC 14884, 24 h
Bacillus spizizenii = experiment: Antimicrobial activity against Bacillus subtilis subsp. spizizenii ATCC 6633 after 24 hr by broth dilution method; details: ATCC 6633, 24 h
Staphylococcus aureus = experiment: Antimicrobial activity against Staphylococcus aureus ATCC 25923 after 24 hr by broth dilution method; details: ATCC 25923, 24 h
Salmonella typhi = experiment: Antimicrobial activity against Salmonella enterica subsp. enterica serovar Typhi ATCC 19430 after 24 hr by broth dilution method; details: ATCC 19430, 24 h
Trichoderma viride = experiment: Antimicrobial activity against Hypocrea rufa ATCC 52440 after 24 hr by broth dilution method; details: ATCC 52440, 24 h
Microsporum canis = experiment: Antimicrobial activity against Arthroderma otae ATCC 11622 after 24 hr by broth dilution method; details: ATCC 11622, 24 h
Pseudomonas aeruginosa = experiment: Antimicrobial activity against Pseudomonas aeruginosa ATCC 10145 after 24 hr by broth dilution method; details: ATCC 10145, 24 h
Klebsiella pneumoniae = experiment: Antimicrobial activity against Klebsiella pneumoniae ATCC 13883 after 24 hr by broth dilution method; details: ATCC 13883, 24 h
Proteus mirabilis = experiment: Antimicrobial activity against Proteus mirabilis ATCC 49565 after 24 hr by broth dilution method; details: ATCC 49565, 24 h
Candida albicans = experiment: Antimicrobial activity against Candida albicans ATCC 10231 after 24 hr by broth dilution method; details: ATCC 10231, 24 h
Aspergillus flavus = experiment: Antimicrobial activity against Aspergillus flavus ATCC 15517 after 24 hr by broth dilution method; details: ATCC 15517, 24 h

Compound	MIC (Aspergillus niger) [µg/mL]	MIC (Fusarium solani) [µg/mL]	MIC (Rhizoctonia solani) [µg/mL]	MIC (Micrococcus luteus) [µg/mL]	MIC (Proteus vulgaris) [µg/mL]	MIC (Aspergillus awamori) [µg/mL]	MIC (Aspergillus fumigatus) [µg/mL]	MIC (Trichophyton longifusum) [µg/mL]	MIC (Bacillus cereus) [µg/mL]	MIC (Escherichia coli) [µg/mL]	MIC [1] [µg/mL]	MIC (Staphylococcus hominis) [µg/mL]	MIC (Alternaria alternata) [µg/mL]	MIC (Bacillus pumilus) [µg/mL]	MIC (Bacillus spizizenii) [µg/mL]	MIC (Staphylococcus aureus) [µg/mL]	MIC (Salmonella typhi) [µg/mL]	MIC (Trichoderma viride) [µg/mL]	MIC (Microsporum canis) [µg/mL]	MIC (Pseudomonas aeruginosa) [µg/mL]	other results
O=C1Nc2ccc(Cl)cc2/C1=N/N1C(=O)C(Cl)C1c1ccco1 (centres undefined)	18.8 (≈ 53.5 µM)	37.5 (≈ 107 µM)	37.5 (≈ 107 µM)	37.5 (≈ 107 µM)	37.5 (≈ 107 µM)	37.5 (≈ 107 µM)	18.8 (≈ 53.5 µM)	18.8 (≈ 53.5 µM)	37.5 (≈ 107 µM)	37.5 (≈ 107 µM)	75 (≈ 214 µM)	37.5 (≈ 107 µM)	37.5 (≈ 107 µM)	37.5 (≈ 107 µM)	75 (≈ 214 µM)	37.5 (≈ 107 µM)	75 (≈ 214 µM)	37.5 (≈ 107 µM)	37.5 (≈ 107 µM)	37.5 (≈ 107 µM)	MIC (Klebsiella pneumoniae): 75 µg/mL (≈ 214 µM); MIC (Proteus mirabilis): 37.5 µg/mL (≈ 107 µM); MIC (Candida albicans): 18.8 µg/mL (≈ 53.5 µM); MIC (Aspergillus flavus): 37.5 µg/mL (≈ 107 µM)
O=C1Nc2ccc(Cl)cc2/C1=N/N1C(=O)C(Cl)C1c1ccccc1O (centres undefined)	75 (≈ 199 µM)	75 (≈ 199 µM)	150 (≈ 399 µM)	150 (≈ 399 µM)	150 (≈ 399 µM)	150 (≈ 399 µM)	150 (≈ 399 µM)	150 (≈ 399 µM)	300 (≈ 797 µM)	150 (≈ 399 µM)	300 (≈ 797 µM)	300 (≈ 797 µM)	150 (≈ 399 µM)	300 (≈ 797 µM)	300 (≈ 797 µM)	150 (≈ 399 µM)	300 (≈ 797 µM)	150 (≈ 399 µM)	150 (≈ 399 µM)	300 (≈ 797 µM)	MIC (Klebsiella pneumoniae): 300 µg/mL (≈ 797 µM); MIC (Proteus mirabilis): 150 µg/mL (≈ 399 µM); MIC (Candida albicans): 75 µg/mL (≈ 199 µM); MIC (Aspergillus flavus): 150 µg/mL (≈ 399 µM)
O=C1Nc2ccc(Cl)cc2/C1=N/N1C(=O)C(Cl)C1c1ccc(O)cc1 (centres undefined)	4.68 (≈ 12.4 µM)	9.37 (≈ 24.9 µM)	4.68 (≈ 12.4 µM)	18.8 (≈ 49.8 µM)	9.37 (≈ 24.9 µM)	4.68 (≈ 12.4 µM)	4.68 (≈ 12.4 µM)	4.68 (≈ 12.4 µM)	9.37 (≈ 24.9 µM)	9.37 (≈ 24.9 µM)	9.37 (≈ 24.9 µM)	18.8 (≈ 49.8 µM)	4.68 (≈ 12.4 µM)	9.37 (≈ 24.9 µM)	9.37 (≈ 24.9 µM)	18.8 (≈ 49.8 µM)	9.37 (≈ 24.9 µM)	4.68 (≈ 12.4 µM)	4.68 (≈ 12.4 µM)	9.37 (≈ 24.9 µM)	MIC (Klebsiella pneumoniae): 18.8 µg/mL (≈ 49.8 µM); MIC (Proteus mirabilis): 9.37 µg/mL (≈ 24.9 µM); MIC (Candida albicans): 4.68 µg/mL (≈ 12.4 µM); MIC (Aspergillus flavus): 4.68 µg/mL (≈ 12.4 µM)
CN(C)c1ccc(C2C(Cl)C(=O)N2/N=C2\C(=O)Nc3ccc(Cl)cc32)cc1 (centres undefined)	9.37 (≈ 23.2 µM)	9.37 (≈ 23.2 µM)	9.37 (≈ 23.2 µM)	18.8 (≈ 46.5 µM)	9.37 (≈ 23.2 µM)	9.37 (≈ 23.2 µM)	4.68 (≈ 11.6 µM)	4.68 (≈ 11.6 µM)	18.8 (≈ 46.5 µM)	9.37 (≈ 23.2 µM)	9.37 (≈ 23.2 µM)	18.8 (≈ 46.5 µM)	4.68 (≈ 11.6 µM)	9.37 (≈ 23.2 µM)	18.8 (≈ 46.5 µM)	18.8 (≈ 46.5 µM)	9.37 (≈ 23.2 µM)	4.68 (≈ 11.6 µM)	4.68 (≈ 11.6 µM)	9.37 (≈ 23.2 µM)	MIC (Klebsiella pneumoniae): 9.37 µg/mL (≈ 23.2 µM); MIC (Proteus mirabilis): 18.8 µg/mL (≈ 46.5 µM); MIC (Candida albicans): 4.68 µg/mL (≈ 11.6 µM); MIC (Aspergillus flavus): 4.68 µg/mL (≈ 11.6 µM)
COc1ccc(C2C(Cl)C(=O)N2/N=C2\C(=O)Nc3ccc(Cl)cc32)cc1 (centres undefined)	4.68 (≈ 12 µM)	4.68 (≈ 12 µM)	9.37 (≈ 24 µM)	9.37 (≈ 24 µM)	18.8 (≈ 48 µM)	4.68 (≈ 12 µM)	4.68 (≈ 12 µM)	4.68 (≈ 12 µM)	9.37 (≈ 24 µM)	9.37 (≈ 24 µM)	9.37 (≈ 24 µM)	18.8 (≈ 48 µM)	9.37 (≈ 24 µM)	9.37 (≈ 24 µM)	18.8 (≈ 48 µM)	18.8 (≈ 48 µM)	9.37 (≈ 24 µM)	4.68 (≈ 12 µM)	9.37 (≈ 24 µM)	9.37 (≈ 24 µM)	MIC (Klebsiella pneumoniae): 9.37 µg/mL (≈ 24 µM); MIC (Proteus mirabilis): 18.8 µg/mL (≈ 48 µM); MIC (Candida albicans): 4.68 µg/mL (≈ 12 µM); MIC (Aspergillus flavus): 9.37 µg/mL (≈ 24 µM)
O=C1Nc2ccc(Cl)cc2/C1=N/N1C(=O)C(Cl)C1c1ccc(F)cc1 (centres undefined)	4.68 (≈ 12.4 µM)	9.37 (≈ 24.8 µM)	9.37 (≈ 24.8 µM)	18.8 (≈ 49.6 µM)	18.8 (≈ 49.6 µM)	4.68 (≈ 12.4 µM)	9.37 (≈ 24.8 µM)	9.37 (≈ 24.8 µM)	18.8 (≈ 49.6 µM)	18.8 (≈ 49.6 µM)	18.8 (≈ 49.6 µM)	9.37 (≈ 24.8 µM)	4.68 (≈ 12.4 µM)	18.8 (≈ 49.6 µM)	9.37 (≈ 24.8 µM)	18.8 (≈ 49.6 µM)	9.37 (≈ 24.8 µM)	9.37 (≈ 24.8 µM)	9.37 (≈ 24.8 µM)	18.8 (≈ 49.6 µM)	MIC (Klebsiella pneumoniae): 18.8 µg/mL (≈ 49.6 µM); MIC (Proteus mirabilis): 9.37 µg/mL (≈ 24.8 µM); MIC (Candida albicans): 4.68 µg/mL (≈ 12.4 µM); MIC (Aspergillus flavus): 4.68 µg/mL (≈ 12.4 µM)
